Reference: patent US8592603B2, “Synthesis of 2-(4-aminophenyl) benzothiazole derivatives and use thereof” (Kaohsiung Medical University, priority 2011, dated 2013)

System: p38
Test: Western blot analysis of MAPK phosphorylation: p38
Type: cell-based, human
Conditions: BCC cells, 6f-UVA at 4 μM, compared with untreated control (FIG. 6A)
Procedure: (A) After exposure to different concentration of 6f-UVA, cell lysates were collected and immunoblotted with specific antibodies as indicated. For the internal control, the same amounts of protein extract were also probed with antibody against actin. (B) As a control, the expression level of p-ERK was determined in the presence of oligomycin (25 μM) and ATP (1×10^−4M)
Total cell extracts from cultured BCC cells were obtained by lysing the cells in ice-cold RIPA buffer (1×PBS, 1% NP-40, 0.5% sodium deoxycholate, 0.1% SDS) containing 100 μg/mL PMSF, 2 μg/mL aprotinin, 2 μg/mL leupeptin and 100 μg/mL NaF. After centrifugation at 14,000 g for 30 min, protein in the supernatants was quantified by Bradford method (Bio-Rad). Forty micrograms of protein per lane was applied in 10% SDS-poly-acrylamide gel. After electrophoresis, protein was transferred from the gel to polyvinylidene difluoride (PVDF) membrane (Millipore, Bedford, Mass.). The membranes were blocked at room temperature for 1 h in PBS+0.1% Tween 20 (PBS-T) containing 5% skim milk. After being briefly rinsed with PBS-T, the blots were probed with respective primary antibodies at room temperature for 2 h or at 4° C. overnight. […] The relative amounts of specific proteins were quantified by densitometry scanning of X-ray films and analyzed by Eagle Eye Image System (Stratagene, La Jolla, Calif.)

**Q.** `Nc1ccc(-c2nc3ccc(C(F)(F)F)cc3s2)cc1` [Formula 6f, 2-(4-Aminophenyl)-6-trifluoromethylbenzothiazole] was tested. Which “phosphorylation of p38 (p-p38)” value did it give?
**A.** increased
